Test results from patent publication US5618943A, “Acetylenes disubstituted with a 5 OXO substituted tetrahydronaphthyl group and with an aryl or heteroaryl group having retinoid-like biological activity” (Allergan, priority 1994, dated 1997).

Experiments:
[1] = test system: ornithine decarboxylase (ODC); assay: ODC assay: inhibition of TPA induction of ornithine decarboxylase (retinoic acid-like activity); format: biochemical; details: concentration of the test compound which causes 80% inhibition in the ODC assay; TPA-induced
Text: The retinoic acid-like activity of these compounds is confirmed through the classic measure of retinoic acid activity involving the effects of retinoic acid on ornithine decarboxylase. The original work on the correlation between retinoic acid and decrease in cell proliferation was done by Verma & Boutwell, Cancer Research, 1977, 37,2196-2201. That reference discloses that ornithine decarboxylase (ODC) activity increased precedent to polyamine biosynthesis. It has been established elsewhere that increases in polyamine synthesis can be correlated or associated with cellular proliferation. Thus, if ODC activity could be inhibited, cell hyperproliferation could be modulated. Although all cases for ODC activity increases are unknown, it is known that 12-0-tetradecanoylphorbol-13-acetate (TPA) induces ODC activity. […] Activity of exemplary compounds of the present invention in the abovedescribed ODC assay is disclosed in Table 2 which provides the IC80 concentration for the respective exemplary compound. ("IC80 " is that concentration of the test compound which causes 80% inhibition in the ODC assay. By analogy, "IC60, for example, is that concentration of the test compound which causes 60% inhibition in the ODC assay.)

[2] = test system: ornithine decarboxylase (ODC); details: literature statement; cited from earlier work

Row | Structure (SMILES) | IC80 conc [1] [nmols] | inhibition of TPA induction of ODC activity (in words) [2]
1 | CCOC(=O)c1ccc(C#Cc2ccc3c(c2)C(=O)CCC3(C)C)cc1 [Compound 2, Ethyl 4-[(5,6,7,8-tetrahydro-8,8-dimethyl-5-oxonaphth-3-yl)ethynyl]benzoate] | 0.85 | 
2 | CCOC(=O)c1ccc(C#Cc2ccc3c(c2)C(C)(C)CCC3=O)nc1 [Compound 5, Ethyl 6-[(5,6,7,8-tetrahydro-8,8-dimethyl-5-oxonaphth-2-yl)ethynyl]nicotinate] | 113 | 
3 | CC1=C(/C=C/C(C)=C/C=C/C(C)=C/C(=O)O)C(C)(C)CCC1 [Retinoic acid] |  | inhibits this induction of ODC activity
4 | CCOC(=O)c1ccc(C#Cc2ccc3c(c2)C(C)(C)CCC3=O)cc1 [Compound 1, Ethyl 4-[(5,6,7,8-tetrahydro-8,8-dimethyl-5-oxonaphth-2-yl)ethynyl]benzoate] | 1.60 | 

More lines, main results first:

Row | IC80 conc [1] [nmols] | Structure (SMILES) | inhibition of TPA induction of ODC activity (in words) [2]
5 | 23.00 | CCOC(=O)c1ccc(C#Cc2ccc3c(c2)C(C)(C)CCC32SCCCS2)cc1 [Compound 59, Ethyl 4-[[5,6,7,8-tetrahydro-8,8-dimethyl-5-(2-(1,3-dithiane))napth-2-yl]ethynyl]benzoate] | 
6 | 1.37 | CC1(C)CCC(=O)c2cc(C#Cc3ccc(C(=O)O)cc3)ccc21 [Compound 8, 4-[(5,6,7,8-tetrahydro-8,8-dimethyl-5-oxonaphth-3yl)ethynyl]benzoic acid] | 
7 | 1.60 | CC1(C)CCC(=O)c2ccc(C#Cc3ccc(C(=O)O)cc3)cc21 [Compound 7, 4-[(5,6,7,8-tetrahydro-8,8-dimethyl-5-oxonaphth-2-yl)ethynyl]benzoic acid] | 
8 | 2.60 | CC1(C)CCC2(SCCCS2)c2cc(C#Cc3ccc(C(=O)O)cc3)ccc21 [Compound 60, 4-[[5,6,7,8-tetrahydro-8,8-dimethyl-5-(2-(1,3-dithiane))naphth-3-yl]ethynyl]benzoic acid] | 
9 | 26.12 | CCOC(=O)c1ccc(C#Cc2ccc3c(c2)C2(CCC3(C)C)SCCCS2)cc1 [Compound 58, Ethyl. 4-[[5,6,7,8-tetrahydro-8,8-dimethyl-5-(2-(1,3-dithiane))naphth-3-yl]ethynyl]benzoate] | 
